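How tested: cells in 96-well plates exposed to compound for 48 hours at five concentrations. GI50: concentration for 50% inhibition of growth. At the TGI there is no net growth.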
How the values were obtained:
Experiment in all cases: NCI tumour cell line growth inhibition, 48 h; in the data active = GI50 below about 0.43 µM; inactive = the rest
786-0 renal = tested on: 786-0 renal
A549 NSCLC = tested on: A549 NSCLC
ACHN renal = tested on: ACHN renal
CAKI-1 renal = tested on: CAKI-1 renal
CCRF-CEM leukemia = tested on: CCRF-CEM leukemia
COLO 205 colon = tested on: COLO 205 colon
DLD-1 colon = tested on: DLD-1 colon
DMS 114 small cell lung = tested on: DMS 114 small cell lung
DMS 273 small cell lung = tested on: DMS 273 small cell lung
EKVX NSCLC = tested on: EKVX NSCLC
HCC-2998 colon = tested on: HCC-2998 colon
HCT-116 colon = tested on: HCT-116 colon
HCT-15 colon = tested on: HCT-15 colon
HL-60(TB) leukemia = tested on: HL-60(TB) leukemia
HOP-18 NSCLC = tested on: HOP-18 NSCLC
HOP-62 NSCLC = tested on: HOP-62 NSCLC
HOP-92 NSCLC = tested on: HOP-92 NSCLC
HT29 colon = tested on: HT29 colon
IGROV1 ovarian = tested on: IGROV1 ovarian
K-562 leukemia = tested on: K-562 leukemia
KM12 colon = tested on: KM12 colon
KM20L2 colon = tested on: KM20L2 colon
LOX IMVI melanoma = tested on: LOX IMVI melanoma
LXFL 529 NSCLC = tested on: LXFL 529 NSCLC
M14 melanoma = tested on: M14 melanoma
M19-MEL melanoma = tested on: M19-MEL melanoma
MALME-3M melanoma = tested on: MALME-3M melanoma
MOLT-4 leukemia = tested on: MOLT-4 leukemia
NCI-H226 lung = tested on: NCI-H226 lung
NCI-H23 lung = tested on: NCI-H23 lung
NCI-H460 lung = tested on: NCI-H460 lung
NCI-H522 lung = tested on: NCI-H522 lung
OVCAR-3 ovarian = tested on: OVCAR-3 ovarian
OVCAR-4 ovarian = tested on: OVCAR-4 ovarian
OVCAR-5 ovarian = tested on: OVCAR-5 ovarian
OVCAR-8 ovarian = tested on: OVCAR-8 ovarian
RPMI-8226 leukemia = tested on: RPMI-8226 leukemia
RXF 393 renal = tested on: RXF 393 renal
SF-268 CNS = tested on: SF-268 CNS
SF-295 CNS = tested on: SF-295 CNS
SF-539 CNS = tested on: SF-539 CNS
SK-MEL-2 melanoma = tested on: SK-MEL-2 melanoma
SK-MEL-28 melanoma = tested on: SK-MEL-28 melanoma
SK-MEL-5 melanoma = tested on: SK-MEL-5 melanoma
SK-OV-3 ovarian = tested on: SK-OV-3 ovarian
SN12C renal = tested on: SN12C renal
SNB-19 CNS = tested on: SNB-19 CNS
SNB-75 CNS = tested on: SNB-75 CNS
SNB-78 CNS = tested on: SNB-78 CNS
SR leukemia = tested on: SR leukemia
SW-620 colon = tested on: SW-620 colon
TK-10 renal = tested on: TK-10 renal
U251 CNS = tested on: U251 CNS
UACC-257 melanoma = tested on: UACC-257 melanoma
UACC-62 melanoma = tested on: UACC-62 melanoma
UO-31 renal = tested on: UO-31 renal
A498 renal = tested on: A498 renal
XF 498 CNS = tested on: XF 498 CNS

CCC[CH2][Sn](=[O])[CH2]CCC
inactive: GI50 (786-0 renal) > 50 µM | GI50 (A549 NSCLC) > 50 µM | GI50 (ACHN renal) > 50 µM | GI50 (CAKI-1 renal) > 35.1 µM | GI50 (CCRF-CEM leukemia) > 50 µM | GI50 (COLO 205 colon) > 50 µM | GI50 (DLD-1 colon) > 50 µM | GI50 (DMS 114 small cell lung) > 50 µM | GI50 (DMS 273 small cell lung) > 50 µM | GI50 (EKVX NSCLC) > 50 µM | GI50 (HCC-2998 colon) > 50 µM | GI50 (HCT-116 colon) > 50 µM | GI50 (HCT-15 colon) > 50 µM | GI50 (HL-60(TB) leukemia) > 36.2 µM | GI50 (HOP-18 NSCLC) > 50 µM | GI50 (HOP-62 NSCLC) > 50 µM | GI50 (HOP-92 NSCLC) 31.9 µM | GI50 (HT29 colon) > 50 µM | GI50 (IGROV1 ovarian) > 50 µM | GI50 (K-562 leukemia) > 50 µM | GI50 (KM12 colon) > 50 µM | GI50 (KM20L2 colon) > 50 µM | GI50 (LOX IMVI melanoma) > 50 µM | GI50 (LXFL 529 NSCLC) > 50 µM | GI50 (M14 melanoma) > 50 µM | GI50 (M19-MEL melanoma) > 50 µM | GI50 (MALME-3M melanoma) > 50 µM | GI50 (MOLT-4 leukemia) > 50 µM | GI50 (NCI-H226 lung) > 50 µM | GI50 (NCI-H23 lung) > 50 µM | GI50 (NCI-H460 lung) > 50 µM | GI50 (NCI-H522 lung) > 50 µM | GI50 (OVCAR-3 ovarian) > 50 µM | GI50 (OVCAR-4 ovarian) > 50 µM | GI50 (OVCAR-5 ovarian) > 30.3 µM | GI50 (OVCAR-8 ovarian) > 50 µM | GI50 (RPMI-8226 leukemia) > 50 µM | GI50 (RXF 393 renal) 47.7 µM | GI50 (SF-268 CNS) > 50 µM | GI50 (SF-295 CNS) > 50 µM | GI50 (SF-539 CNS) > 50 µM | GI50 (SK-MEL-2 melanoma) > 50 µM | GI50 (SK-MEL-28 melanoma) > 50 µM | GI50 (SK-MEL-5 melanoma) > 50 µM | GI50 (SK-OV-3 ovarian) > 50 µM | GI50 (SN12C renal) > 50 µM | GI50 (SNB-19 CNS) > 50 µM | GI50 (SNB-75 CNS) > 39.7 µM | GI50 (SNB-78 CNS) > 50 µM | GI50 (SR leukemia) > 50 µM | GI50 (SW-620 colon) > 50 µM | GI50 (TK-10 renal) > 50 µM | GI50 (U251 CNS) > 50 µM | GI50 (UACC-257 melanoma) > 50 µM | GI50 (UACC-62 melanoma) > 50 µM | GI50 (UO-31 renal) > 50 µM
> 50 µM: TGI (786-0 renal) | TGI (A549 NSCLC) | TGI (ACHN renal) | TGI (CAKI-1 renal) | TGI (CCRF-CEM leukemia) | TGI (COLO 205 colon) | TGI (DLD-1 colon) | TGI (DMS 114 small cell lung) | TGI (DMS 273 small cell lung) | TGI (EKVX NSCLC) | TGI (HCC-2998 colon) | TGI (HCT-116 colon) | TGI (HCT-15 colon) | TGI (HL-60(TB) leukemia) | TGI (HOP-18 NSCLC) | TGI (HOP-62 NSCLC) | TGI (HOP-92 NSCLC) | TGI (HT29 colon) | TGI (IGROV1 ovarian) | TGI (K-562 leukemia) | TGI (KM12 colon) | TGI (KM20L2 colon) | TGI (LOX IMVI melanoma) | TGI (LXFL 529 NSCLC) | TGI (M14 melanoma) | TGI (M19-MEL melanoma) | TGI (MALME-3M melanoma) | TGI (MOLT-4 leukemia) | TGI (NCI-H226 lung) | TGI (NCI-H23 lung) | TGI (NCI-H460 lung) | TGI (NCI-H522 lung) | TGI (OVCAR-3 ovarian) | TGI (OVCAR-4 ovarian) | TGI (OVCAR-5 ovarian) | TGI (OVCAR-8 ovarian) | TGI (RPMI-8226 leukemia) | TGI (RXF 393 renal) | TGI (SF-268 CNS) | TGI (SF-295 CNS) | TGI (SF-539 CNS) | TGI (SK-MEL-2 melanoma) | TGI (SK-MEL-28 melanoma) | TGI (SK-MEL-5 melanoma) | TGI (SK-OV-3 ovarian) | TGI (SN12C renal) | TGI (SNB-19 CNS) | TGI (SNB-75 CNS) | TGI (SNB-78 CNS) | TGI (SR leukemia) | TGI (SW-620 colon) | TGI (TK-10 renal) | TGI (U251 CNS) | TGI (UACC-257 melanoma) | TGI (UACC-62 melanoma) | TGI (UO-31 renal)

CC(C)(C)C1=CC(=N/N=c2\scc(-c3ccccc3)n2-c2ccccc2)C=C(C(C)(C)C)C1=O
> 100 µM: TGI (786-0 renal) | TGI (A498 renal) | TGI (A549 NSCLC) | TGI (ACHN renal) | TGI (CAKI-1 renal) | TGI (CCRF-CEM leukemia) | TGI (COLO 205 colon) | TGI (DLD-1 colon) | TGI (DMS 114 small cell lung) | TGI (DMS 273 small cell lung) | TGI (EKVX NSCLC) | TGI (HCC-2998 colon) | TGI (HCT-116 colon) | TGI (HCT-15 colon) | TGI (HL-60(TB) leukemia) | TGI (HOP-18 NSCLC) | TGI (HOP-62 NSCLC) | TGI (HOP-92 NSCLC) | TGI (HT29 colon) | TGI (IGROV1 ovarian) | TGI (K-562 leukemia) | TGI (KM12 colon) | TGI (KM20L2 colon) | TGI (LOX IMVI melanoma) | TGI (LXFL 529 NSCLC) | TGI (M14 melanoma) | TGI (M19-MEL melanoma) | TGI (MALME-3M melanoma) | TGI (MOLT-4 leukemia) | TGI (NCI-H226 lung) | TGI (NCI-H23 lung) | TGI (NCI-H460 lung) | TGI (NCI-H522 lung) | TGI (OVCAR-3 ovarian) | TGI (OVCAR-4 ovarian) | TGI (OVCAR-5 ovarian) | TGI (OVCAR-8 ovarian) | TGI (RPMI-8226 leukemia) | TGI (RXF 393 renal) | TGI (SF-268 CNS) | TGI (SF-295 CNS) | TGI (SF-539 CNS) | TGI (SK-MEL-2 melanoma) | TGI (SK-MEL-28 melanoma) | TGI (SK-MEL-5 melanoma) | TGI (SK-OV-3 ovarian) | TGI (SN12C renal) | TGI (SNB-19 CNS) | TGI (SNB-75 CNS) | TGI (SNB-78 CNS) | TGI (SR leukemia) | TGI (SW-620 colon) | TGI (TK-10 renal) | TGI (U251 CNS) | TGI (UACC-257 melanoma) | TGI (UACC-62 melanoma) | TGI (UO-31 renal) | TGI (XF 498 CNS)

CCCCN(CC)C(=O)C(=O)Cc1nc2ccc(C(=O)c3ccccc3)cc2[nH]c1=O
92 µM: TGI (RXF 393 renal)
> 88.1 µM: TGI (SNB-75 CNS)
75 µM: TGI (NCI-H522 lung)
> 100 µM: TGI (786-0 renal) | TGI (A498 renal) | TGI (A549 NSCLC) | TGI (ACHN renal) | TGI (CAKI-1 renal) | TGI (COLO 205 colon) | TGI (DLD-1 colon) | TGI (DMS 114 small cell lung) | TGI (DMS 273 small cell lung) | TGI (EKVX NSCLC) | TGI (HCT-116 colon) | TGI (HCT-15 colon) | TGI (HOP-62 NSCLC) | TGI (HOP-92 NSCLC) | TGI (HT29 colon) | TGI (IGROV1 ovarian) | TGI (KM12 colon) | TGI (KM20L2 colon) | TGI (LOX IMVI melanoma) | TGI (LXFL 529 NSCLC) | TGI (M14 melanoma) | TGI (M19-MEL melanoma) | TGI (NCI-H226 lung) | TGI (NCI-H23 lung) | TGI (NCI-H460 lung) | TGI (OVCAR-3 ovarian) | TGI (OVCAR-4 ovarian) | TGI (OVCAR-5 ovarian) | TGI (OVCAR-8 ovarian) | TGI (SF-268 CNS) | TGI (SF-295 CNS) | TGI (SF-539 CNS) | TGI (SK-MEL-28 melanoma) | TGI (SK-MEL-5 melanoma) | TGI (SK-OV-3 ovarian) | TGI (SN12C renal) | TGI (SNB-19 CNS) | TGI (SNB-78 CNS) | TGI (SW-620 colon) | TGI (TK-10 renal) | TGI (U251 CNS) | TGI (UACC-257 melanoma) | TGI (UACC-62 melanoma) | TGI (UO-31 renal)
> 31.6 µM: TGI (CCRF-CEM leukemia) | TGI (HL-60(TB) leukemia) | TGI (K-562 leukemia) | TGI (MOLT-4 leukemia) | TGI (RPMI-8226 leukemia) | TGI (SR leukemia)

Source: PubChem BioAssay (NCI)
